Experimental data reported in US20070142319A1, “Anxiolytic treatment by inhibition of a polysialyltransferase” (The Burnham Institute, priority 2004, published 2007).

Tests used:
[1] = test system: cell surface membrane resialylation; settings: compounds that affect intracellular pools of CTP; cited from earlier work
CA3 mossy fiber synapses = assay: Mossy fiber-CA3 extracellular recordings of fEPSPs in hippocampal slices; design: species or system mouse
Excerpt: Hippocampal slices from five- to six-month-old ST8Sia-II-deficient mice and their wild-type littermates were used for recordings. After halothane anesthesia, decapitation and removal of the brain, the hippocampi were cut with a VT 1000M vibratome (Leica, Nussloch, Germany) in slices 300 μm thick in ice-cold artificial cerebrospinal fluid (ACSF) containing (in mM): 250 sucrose, 25 NaHCO3, 25 glucose, 2.5 KCl, 1.25 NaH2PO4, 2 CaCl2, and 1.5 MgCl2, pH 7.3. […]
The LTP-inducing high-frequency stimulation (HFS) consisted of one train of stimuli applied at 100 Hz during 1 sec once (“weak” stimulation protocol) or repeated four times with an interval of 20 sec (“strong” stimulation protocol). […] To additionally confirm that the fEPSPs recorded were evoked by the stimulation of mossy fibers and not by the associational/commissural pathway, an agonist of type II metabotropic glutamate receptors (L-CCG1, 10 μM; Tocris), which is known to reduce synaptic transmission in CA3 mossy fiber synapses (Manzoni, et al. Neuropharmacology (1995) 34:965-71), was applied at the end of each experiment. […] Basal synaptic transmission was monitored at 0.033 Hz. The mean amplitude of fEPSPs recorded 0-10 min before HFS was taken as 100%. Post-tetanic potentiation (PTP) was calculated as the maximal increase in the amplitude of fEPSP after HFS. […]

cultured neurons = settings: acts as chain terminator after conversion to unnatural sialic acid derivative; cited from earlier work

Row | SMILES | cell surface membrane resialylation [1] | also measured
1 | Nc1ccn([C@@H]2O[C@H](CO)[C@@H](O)[C@@H]2O)c(=O)n1 [1-beta-D-arabinofuranosylcytosine] | curtail | 
2 | O=C1C=CN([C@@H]2O[C@H](CO)[C@@H](O)[C@H]2O)C(=O)C1 [3-deazauridine] | curtail | 
3 | NC(CCCP(=O)(O)O)C(=O)O (stereo not drawn) [AP-5] |  | effect on the amplitude of recorded fEPSPs (CA3 mossy fiber synapses; AP-5 50 μM, wild-type or ST8Sia-II deficient samples): did not affect the amplitude
4 | N[C@H](C(=O)O)[C@H]1C[C@@H]1C(=O)O [L-CCG1] |  | reduction of the amplitude of fEPSPs (CA3 mossy fiber synapses; L-CCG1 10 μM at end of experiment, similarly in both genotypes (wild-type and ST8Sia-II deficient)): 80%
5 | CCCC(=O)N[C@@H]1C(O)O[C@H](CO)[C@@H](O)[C@@H]1O (stereo partly drawn) [N-butanoylmannosiamine] |  | PSA expression on cultured neurons (cultured neurons): inhibit PSA expression
6 | N[C@H](C(=O)O)[C@@H]1CC(Cl)=NO1 [acivicin] | curtail | 
